Laboratory results: PubChem BioAssay AID687005 (Broad Institute, 2013)
Records with an inconclusive call do not appear. Active and inactive are the calls of the source.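 How the source made its calls: active means Compounds that reduce signal, with fitted half-maximal dose at or under twice the top valid tested dose; inconclusive means Poor fit, or flat curve losing 30 to 70% of signal; inactive means Potency past limit, flat within 30%, or opposite direction.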

Assay: HEK293T cell cytotoxicity, dose response, cytotoxicity control, ATP luminescence, cherry-pick samples (AID 687005)
Details: HEK293T viability, ATP luminescence (CellTiter-Glo), 48 h; at 23.5 µM (top of the series)
For `N#Cc1ccc(-c2ccc3c(c2)[C@H]2[C@H](CCN2C(=O)Cc2ccccc2)[C@@H](CO)N3)cc1`, the activity change, negative = cytotoxicity was -73.4% (inactive). For `O=C(C[C@H]1C[C@H]2c3cc(NC(=O)C4CCC4)ccc3O[C@H]2[C@@H](CO)O1)NCc1cccc(F)c1`, the activity change, negative = cytotoxicity was -5.36% (inactive). For `C[C@H](CO)N1C[C@H](C)[C@@H](CN(C)S(=O)(=O)c2ccc(Cl)cc2)Oc2c(NS(=O)(=O)c3ccc(F)cc3)cccc2C1=O`, the activity change, negative = cytotoxicity was -1.86% (inactive). With `COC(=O)C1=C(C)N(Cc2ccccc2)C(=S)NC1c1ccc(Br)cc1` (centres undefined) the activity change, negative = cytotoxicity was -9.89% (inactive). For `CCC(=O)N1[C@H](CO)[C@@H](c2ccc(-c3cccnc3)cc2)[C@@H]1CN(C)C(C)=O`, the activity change, negative = cytotoxicity was 3.73% (inactive). In the case of `C[C@@H]1CCCCO[C@@H](CN(C)Cc2ccncc2)[C@@H](C)CN([C@@H](C)CO)C(=O)c2cc(NC(=O)c3ccncc3)ccc2O1`, the activity change, negative = cytotoxicity is reported as 46.4% (inactive). For `CO[C@H]1CN(C)C(=O)c2cc(NC(=O)C3CCOCC3)ccc2OC[C@@H](C)NC[C@H]1C`, the activity change, negative = cytotoxicity was 41% (inactive). In the case of `CNC(=O)C[C@H]1CC[C@H]2[C@H](COc3ccc(NC(=O)c4cc(C)on4)cc3C(=O)N2C)O1`, the activity change, negative = cytotoxicity is reported as -23.4% (inactive). For `Cc1noc(C)c1NC(=O)N(C)C[C@@H]1Oc2ccc(NC(=O)NC(C)C)cc2CC(=O)N([C@@H](C)CO)C[C@@H]1C`, the activity change, negative = cytotoxicity was -4.18% (inactive). In the case of `O=C(C[C@@H]1C[C@@H]2c3cc(NC(=O)Nc4ccc(F)cc4)ccc3O[C@@H]2[C@@H](CO)O1)NCC1CC1`, the activity change, negative = cytotoxicity is reported as 26.7% (inactive).

Same assay, conditions: HEK293T viability, ATP luminescence (CellTiter-Glo), 48 h; at 26 µM (top of the series)
For `Cc1cccc(C)c1NC(=O)C1(C)CCC(=O)N1CCCn1ccnc1` (centres undefined), the activity change, negative = cytotoxicity was -14.5% (inactive). For `C#CCN(C(=O)c1ccc(OC2CCN(C(=O)CCOC)CC2)cc1)C1CCCCC1`, the activity change, negative = cytotoxicity was 8.74% (inactive). With `COCC#Cc1cnc2c(c1)C(=O)N([C@H](C)CO)C[C@@H](C)[C@@H](CN(C)C(=O)Nc1ccc(OC)cc1)O2` the activity change, negative = cytotoxicity was -11.3% (inactive). For `CCCNC(=O)C[C@H]1CC[C@H]2[C@@H](COC[C@@H](O)CN2S(=O)(=O)c2ccc(Oc3ccccc3)cc2)O1`, the activity change, negative = cytotoxicity was -8.05% (inactive). In the case of `CN1C(=O)c2cc(NC(=O)Nc3ccc(Cl)cc3)ccc2OC[C@H]2O[C@@H](CC(=O)NCCN3CCCCC3)CC[C@@H]21`, the activity change, negative = cytotoxicity is reported as 36.5% (inactive). With `C[C@@H](O)C#Cc1ccc([C@@H]2[C@H]3CN(CC4CC4)CCCCN3[C@H]2CO)cc1` the activity change, negative = cytotoxicity was 34.5% (inactive). For `C[C@@H]1CN([C@H](C)CO)C(=O)c2cccc(NC(=O)C3CC3)c2O[C@H]1CN(C)Cc1ccc(C(=O)O)cc1`, the activity change, negative = cytotoxicity was -12.7% (inactive). For `C[C@H]1CN([C@@H](C)CO)C(=O)c2cc(-c3cncnc3)cnc2O[C@H]1CN(C)C(=O)c1ccccc1F`, the activity change, negative = cytotoxicity was 4.74% (inactive). For `C[C@H]1CN([C@@H](C)CO)C(=O)c2cc(NC(=O)Nc3cccc4ccccc34)ccc2O[C@@H]1CN(C)C(=O)Nc1ccc(C(F)(F)F)cc1`, the activity change, negative = cytotoxicity was 1.29% (inactive). For `Cc1noc(C)c1NC(=O)Nc1ccc2c(c1)C(=O)N([C@H](C)CO)C[C@@H](C)[C@H](CN(C)C(=O)Nc1ccc(F)cc1)OCCCC[C@@H](C)O2`, the activity change, negative = cytotoxicity was -26.1% (inactive). For `CO[C@@H]1CN(C)C(=O)c2ccc(NC(=O)C3CC3)cc2OC[C@H](C)N(Cc2ccc(F)cc2)C[C@H]1C`, the activity change, negative = cytotoxicity was -10.4% (inactive). In the case of `CCCC(=O)Nc1ccc2c(c1)C(=O)N(C)C[C@H](OC)[C@@H](C)CN(C(=O)c1cccnc1)[C@@H](C)CO2`, the activity change, negative = cytotoxicity is reported as 4.75% (inactive). With `CNC[C@@H]1Oc2ccc(NS(=O)(=O)c3ccc(Cl)cc3)cc2C(=O)N([C@H](C)CO)C[C@H]1C` the activity change, negative = cytotoxicity was 45.6% (inactive). For `COc1ccc(CNC(=S)NCc2ccc(OC(C)C)cc2)cc1`, the activity change, negative = cytotoxicity was 19.2% (inactive). With `Cc1ccc(N(C(=O)C2CCC(=O)N2)C2(C(=O)NC3CCCC3)CCCCC2)cc1` (centres undefined) the activity change, negative = cytotoxicity was -43.5% (inactive). For `C[C@@H]1CN([C@H](C)CO)C(=O)c2cc(-c3cccc(F)c3)cnc2O[C@H]1CN(C)Cc1ccccc1`, the activity change, negative = cytotoxicity was -7.8% (inactive). With `CCC(=O)N1CCC1(C)C(=O)Nc1ccc(C)c(C)c1` (centres undefined) the activity change, negative = cytotoxicity was -11.7% (inactive). For `O=C(COc1ccc2c(c1)CCC2)NCc1ccc(Cl)cc1`, the activity change, negative = cytotoxicity was 18.5% (inactive). In the case of `COc1cccc(-c2cn(CC[C@@H]3CC[C@H](NC(C)=O)[C@@H](CO)O3)nn2)c1`, the activity change, negative = cytotoxicity is reported as 8.26% (inactive). For `CC(C)C#Cc1ccc2c(c1)O[C@H](CN(C)C(=O)Cc1ccccn1)[C@H](C)CN([C@H](C)CO)S2(=O)=O`, the activity change, negative = cytotoxicity was -25.6% (inactive). With `Cc1ccc(S(=O)(=O)N(CC(=O)NCCSC2CCCCC2)c2ccccc2F)cc1` the activity change, negative = cytotoxicity was 5.79% (inactive). With `Cc1cccc(C)c1NC(=O)CN(C)C(=O)C1CCCCC1` the activity change, negative = cytotoxicity was -11.8% (inactive). With `O=C(C[C@H]1CC[C@H]2[C@@H](COC[C@@H](O)CN2C(=O)c2ccc(F)cc2)O1)N1CCOCC1` the activity change, negative = cytotoxicity was -14.1% (inactive). For `COc1cccc(NC(=O)N2C[C@H](O)COC[C@H]3O[C@@H](CC(=O)NCc4ccccc4F)CC[C@@H]32)c1`, the activity change, negative = cytotoxicity was -23.2% (inactive). For `CNC(=O)C[C@@H]1CC[C@@H]2[C@H](COC[C@H](O)CN2S(=O)(=O)c2cccc(Cl)c2)O1`, the activity change, negative = cytotoxicity was 3.1% (inactive). For `COCC(=O)NC[C@H]1N[C@H](CO)[C@H]1c1ccc(C2=CCCC2)cc1`, the activity change, negative = cytotoxicity was -13.3% (inactive). With `O=C([C@@H]1[C@@H](CO)[C@@H]2Cn3c(cccc3=O)[C@@H]2N1CCC(F)(F)F)N1CCCCC1` the activity change, negative = cytotoxicity was 1.78% (inactive). With `Cc1cc(C)c(NC(=O)C(C)N2CCCCCC2)c(C)c1` (centres undefined) the activity change, negative = cytotoxicity was 16.2% (inactive). For `COc1cccc(NC(=S)N2CCC(Cc3ccccc3)CC2)c1`, the activity change, negative = cytotoxicity was 15.7% (inactive). With `O=C(C[C@@H]1C=C[C@@H](NC(=O)c2cccc(F)c2)[C@H](CO)O1)NCCN1CCCC1` the activity change, negative = cytotoxicity was 20.8% (inactive). For `CO[C@@H](CN(C)Cc1ccc2c(c1)OCO2)[C@@H](C)CN(C(=O)c1ccccc1)[C@H](C)CO`, the activity change, negative = cytotoxicity was 29.3% (inactive). In the case of `C[C@H](CO)N1C[C@H](C)[C@H](CN(C)S(=O)(=O)c2ccccc2)Oc2ccc(NS(=O)(=O)c3ccc(F)cc3)cc2C1=O`, the activity change, negative = cytotoxicity is reported as -25.5% (inactive). With `O=C(C[C@H]1CC[C@H]2[C@@H](COC[C@@H](O)CN2C(=O)Nc2ccc(Cl)cc2)O1)N1CCCCC1` the activity change, negative = cytotoxicity was 25.8% (inactive). In the case of `CC(=O)c1cccc(NC(=S)NC2CCCCC2)c1`, the activity change, negative = cytotoxicity is reported as -7.11% (inactive). For `C[C@@H]1CN([C@@H](C)CO)C(=O)c2cc(NS(=O)(=O)c3cn(C)cn3)ccc2O[C@@H]1CN(C)C(=O)Nc1cccc2ccccc12`, the activity change, negative = cytotoxicity was -15.2% (inactive). For `CNC[C@@H]1OCCCC[C@H](C)Oc2ccc(NC(=O)NC(C)C)cc2C(=O)N([C@H](C)CO)C[C@H]1C`, the activity change, negative = cytotoxicity was 14.1% (inactive). For `CC(C)NC(=O)N(C)C[C@H]1Oc2c(NS(=O)(=O)c3ccc(Cl)cc3)cccc2C(=O)N([C@@H](C)CO)C[C@@H]1C`, the activity change, negative = cytotoxicity was -20.3% (inactive). For `O=C(c1cccnc1)N1C[C@H]2[C@@H](c3ccccc31)[C@@H](CO)N2C(=O)Nc1ccc(F)cc1`, the activity change, negative = cytotoxicity was -19.7% (inactive).

Same assay, conditions: HEK293T viability, ATP luminescence (CellTiter-Glo), 48 h; at 42 µM (top of the series)
For `CCC(=O)N1CCCC1(C)C(=O)Nc1ccc(C)c(C)c1` (centres undefined), the activity change, negative = cytotoxicity was -1.9% (inactive).
